Like-named read-outs stand apart in the source and are kept apart here.
Key:
Assay in all cases: growth of strains streaked on Sabouraud agar containing the products
Format in all cases: cell-based
Epidermophyton floccosum = details: Epid.Flocosum; for activity at 10 µg/mL: read-out: % DE CROISSANCE; for inhibition at 2 µg/mL / inhibition at 10 µg/mL / inhibition at 20 µg/mL / inhibition at 50 µg/mL: read-out: inhibition de la croissance
Method: (§1) Ces molécules ont été incorporées dans un milieu gélosé dit de Sabouraud (peptone 10g/l, glucose 10 g/l, gomme agar 15 g/l).
(§2) Des souches de diverses espèces de champignons ont été ensemencées par stries par la méthode de Stires.
(§3) Le pourcentage de croissance a été mesuré au cours du temps, pour des périodes allant jusqu'à 21 jours, pour certaines des souches testées.
(§4) Les quantités de pipéronyl butoxyde, et de cyclopyroxolamine utilisées sont identiques et sont de 10 ou 20 µg/ml dans le cas de l'association entre ces deux composés.
(§5) Dans le cas de l'association entre le pipéronyl butoxyde et l'éconazole, elles sont respectivement de 10 ou 20 µg/ml de pipéronyl butoxyde et de 1 µg/ml d'éconazole.
(§6) Des souches appartenant aux espèces suivantes ont été testées: Microsporum canis, Trichophyton rubrum, Trichophyton interdigitale, Trichophyton mentagrophytes, Microsporum persicolor, Epidermophyton floccosum, Trichophyton violaceum et Trichophyton soudanense.
(§7) L'activité du pipéronyl butoxyde seul a été testée à diverses concentrations, comme indiqué dans le tableau 1 sur le milieu de Sabouraud, dépourvu de tout autre fongicide.

Microsporum canis = details: for activity at 20 µg/mL: read-out: % DE CROISSANCE; for inhibition at 2 µg/mL / inhibition at 10 µg/mL / inhibition at 20 µg/mL / inhibition at 50 µg/mL: Micro. Canis, read-out: inhibition de la croissance
Method: as §1, §2, §3, §4, §5, §6, §7

[1] = system: Trichophyton interdigitale; details: Tric.Interdigitale; for activity at 20 µg/mL: read-out: % DE CROISSANCE; for inhibition at 2 µg/mL / inhibition at 10 µg/mL / inhibition at 20 µg/mL / inhibition at 50 µg/mL: read-out: inhibition de la croissance
Method: as §1, §2, §3, §4, §5, §6, §7

[2] = system: Trichophyton mentagrophytes; details: Tric.Mentagophytes; for activity at 20 µg/mL: read-out: % DE CROISSANCE; for inhibition at 2 µg/mL / inhibition at 10 µg/mL / inhibition at 20 µg/mL / inhibition at 50 µg/mL: read-out: inhibition de la croissance
Method: as §1, §2, §3, §4, §5, §6, §7

Trichophyton rubrum = details: Tric.Rubrum; for activity at 20 µg/mL: read-out: % DE CROISSANCE; for inhibition at 2 µg/mL / inhibition at 10 µg/mL / inhibition at 20 µg/mL / inhibition at 50 µg/mL: read-out: inhibition de la croissance
Method: as §1, §2, §3, §4, §5, §6, §7

Trichophyton soudanense = details: Tric.Soudanese; for activity at 10 µg/mL: read-out: % DE CROISSANCE; for inhibition at 2 µg/mL / inhibition at 10 µg/mL / inhibition at 20 µg/mL / inhibition at 50 µg/mL: read-out: inhibition de la croissance
Method: as §1, §2, §3, §4, §5, §6, §7

Trichophyton violaceum = details: Tric.Violaceum; for activity at 10 µg/mL: read-out: % DE CROISSANCE; for inhibition at 2 µg/mL / inhibition at 10 µg/mL / inhibition at 20 µg/mL / inhibition at 50 µg/mL: read-out: inhibition de la croissance
Method: as §1, §2, §3, §4, §5, §6, §7

[3] = 144 h, J6, 10µg/ml each product
[4] = 240 h, J10, 10µg/ml each product
[5] = 336 h, J14, 10µg/ml each product
[6] = 144 h, J6, 20µg/ml each product
[7] = 240 h, J10, 20µg/ml each product
[8] = 336 h, J14, 20µg/ml each product

CCCCOCCOCCOCc1cc2c(cc1CCC)OCO2 [Piperonyl., pipéronyl butoxyde]
35%: activity at 20 µg/mL (Trichophyton rubrum; [7]) | inhibition at 20 µg/mL (Trichophyton rubrum; J+10, 20 µg/ml) | activity at 10 µg/mL (Trichophyton violaceum; [4]) | activity at 10 µg/mL (Trichophyton violaceum; [5]) | inhibition at 10 µg/mL (Trichophyton violaceum; J+10, 10 µg/ml) | inhibition at 10 µg/mL (Trichophyton violaceum; J+14, 10 µg/ml)
25%: inhibition at 20 µg/mL (Epidermophyton floccosum; J+10, 20 µg/ml) | activity at 20 µg/mL [1, 6] | activity at 20 µg/mL [2, 6] | activity at 10 µg/mL (Trichophyton soudanense; [5]) | inhibition at 2 µg/mL (Trichophyton soudanense; J+4, 2 µg/ml) | inhibition at 10 µg/mL (Trichophyton soudanense; J+14, 10 µg/ml) | inhibition at 2 µg/mL (Trichophyton violaceum; J+4, 2 µg/ml) | inhibition at 20 µg/mL (Trichophyton violaceum; J+14, 20 µg/ml)
50%: activity at 20 µg/mL (Trichophyton rubrum; [8]) | inhibition at 20 µg/mL (Trichophyton rubrum; J+14, 20 µg/ml)
15%: inhibition at 2 µg/mL (Epidermophyton floccosum; J+4, 2 µg/ml) | inhibition at 10 µg/mL (Microsporum canis; J+4, 10 µg/ml) | inhibition at 10 µg/mL ([1]; J+4, 10 µg/ml) | inhibition at 2 µg/mL (Trichophyton rubrum; J+4, 2 µg/ml) | activity at 10 µg/mL (Trichophyton violaceum; [3]) | inhibition at 20 µg/mL (Trichophyton violaceum; J+10, 20 µg/ml)
30%: inhibition at 20 µg/mL (Epidermophyton floccosum; J+14, 20 µg/ml) | inhibition at 2 µg/mL ([1]; J+4, 2 µg/ml) | inhibition at 2 µg/mL ([2]; J+4, 2 µg/ml)
5%: activity at 20 µg/mL (Microsporum canis; 144 h) | activity at 20 µg/mL ([1]; 96 h, J4, 20µg/ml each product) | inhibition at 20 µg/mL ([1]; J+4, 20 µg/ml)
70%: activity at 10 µg/mL (Epidermophyton floccosum; [5]) | inhibition at 10 µg/mL (Epidermophyton floccosum; J+14, 10 µg/ml) | activity at 20 µg/mL [1, 8] | inhibition at 10 µg/mL ([1]; J+10, 10 µg/ml) | inhibition at 20 µg/mL ([1]; J+14, 20 µg/ml) | inhibition at 10 µg/mL ([2]; J+14, 10 µg/ml)
100%: inhibition at 2 µg/mL (Epidermophyton floccosum; J+14, 2 µg/ml) | inhibition at 2 µg/mL (Microsporum canis; J+14, 2 µg/ml) | inhibition at 2 µg/mL ([1]; J+14, 2 µg/ml) | inhibition at 2 µg/mL ([2]; J+14, 2 µg/ml) | inhibition at 2 µg/mL (Trichophyton rubrum; J+14, 2 µg/ml) | inhibition at 2 µg/mL (Trichophyton soudanense; J+14, 2 µg/ml) | inhibition at 2 µg/mL (Trichophyton violaceum; J+14, 2 µg/ml)
65%: activity at 20 µg/mL [2, 8] | inhibition at 20 µg/mL ([2]; J+14, 20 µg/ml)
10%: activity at 10 µg/mL (Epidermophyton floccosum; [3]) | inhibition at 10 µg/mL ([2]; J+4, 10 µg/ml) | inhibition at 10 µg/mL (Trichophyton rubrum; J+4, 10 µg/ml) | activity at 10 µg/mL (Trichophyton soudanense; [3]) | activity at 10 µg/mL (Trichophyton soudanense; [4]) | inhibition at 10 µg/mL (Trichophyton soudanense; J+10, 10 µg/ml)
20%: inhibition at 2 µg/mL (Microsporum canis; J+4, 2 µg/ml) | activity at 20 µg/mL (Trichophyton rubrum; [6])
90%: inhibition at 2 µg/mL (Epidermophyton floccosum; J+10, 2 µg/ml) | inhibition at 2 µg/mL (Trichophyton rubrum; J+10, 2 µg/ml) | inhibition at 2 µg/mL (Trichophyton violaceum; J+10, 2 µg/ml)
0%: activity at 10 µg/mL (Epidermophyton floccosum; 0 h, J0, 10µg/ml each product) | activity at 10 µg/mL (Epidermophyton floccosum; 96 h, J4, 10µg/ml each product) | inhibition at 10 µg/mL (Epidermophyton floccosum; J+4, 10 µg/ml) | inhibition at 20 µg/mL (Epidermophyton floccosum; J+4, 20 µg/ml) | inhibition at 50 µg/mL (Epidermophyton floccosum; J+4, 50 µg/ml) | inhibition at 50 µg/mL (Epidermophyton floccosum; J+10, 50 µg/ml) | inhibition at 50 µg/mL (Epidermophyton floccosum; J+14, 50 µg/ml) | activity at 20 µg/mL (Microsporum canis; 0 h) | activity at 20 µg/mL (Microsporum canis; 96 h) | inhibition at 20 µg/mL (Microsporum canis; J+4, 20 µg/ml) | inhibition at 50 µg/mL (Microsporum canis; J+4, 50 µg/ml) | inhibition at 50 µg/mL (Microsporum canis; J+10, 50 µg/ml) | inhibition at 50 µg/mL (Microsporum canis; J+14, 50 µg/ml) | activity at 20 µg/mL ([1]; 0 h, J0, 20µg/ml each product) | inhibition at 50 µg/mL ([1]; J+4, 50 µg/ml) | inhibition at 50 µg/mL ([1]; J+10, 50 µg/ml) | inhibition at 50 µg/mL ([1]; J+14, 50 µg/ml) | activity at 20 µg/mL ([2]; 0 h, J0, 20µg/ml each product) | activity at 20 µg/mL ([2]; 96 h, J4, 20µg/ml each product) | inhibition at 20 µg/mL ([2]; J+4, 20 µg/ml) | inhibition at 50 µg/mL ([2]; J+4, 50 µg/ml) | inhibition at 50 µg/mL ([2]; J+10, 50 µg/ml) | inhibition at 50 µg/mL ([2]; J+14, 50 µg/ml) | activity at 20 µg/mL (Trichophyton rubrum; 0 h, J0, 20µg/ml each product) | activity at 20 µg/mL (Trichophyton rubrum; 96 h, J4, 20µg/ml each product) | inhibition at 20 µg/mL (Trichophyton rubrum; J+4, 20 µg/ml) | inhibition at 50 µg/mL (Trichophyton rubrum; J+4, 50 µg/ml) | inhibition at 50 µg/mL (Trichophyton rubrum; J+10, 50 µg/ml) | inhibition at 50 µg/mL (Trichophyton rubrum; J+14, 50 µg/ml) | activity at 10 µg/mL (Trichophyton soudanense; 0 h, J0, 10µg/ml each product) | activity at 10 µg/mL (Trichophyton soudanense; 96 h, J4, 10µg/ml each product) | inhibition at 10 µg/mL (Trichophyton soudanense; J+4, 10 µg/ml) | inhibition at 20 µg/mL (Trichophyton soudanense; J+4, 20 µg/ml) | inhibition at 50 µg/mL (Trichophyton soudanense; J+4, 50 µg/ml) | inhibition at 20 µg/mL (Trichophyton soudanense; J+10, 20 µg/ml) | inhibition at 50 µg/mL (Trichophyton soudanense; J+10, 50 µg/ml) | inhibition at 20 µg/mL (Trichophyton soudanense; J+14, 20 µg/ml) | inhibition at 50 µg/mL (Trichophyton soudanense; J+14, 50 µg/ml) | activity at 10 µg/mL (Trichophyton violaceum; 0 h, J0, 10µg/ml each product) | activity at 10 µg/mL (Trichophyton violaceum; 96 h, J4, 10µg/ml each product) | inhibition at 10 µg/mL (Trichophyton violaceum; J+4, 10 µg/ml) | inhibition at 20 µg/mL (Trichophyton violaceum; J+4, 20 µg/ml) | inhibition at 50 µg/mL (Trichophyton violaceum; J+4, 50 µg/ml) | inhibition at 50 µg/mL (Trichophyton violaceum; J+10, 50 µg/ml) | inhibition at 50 µg/mL (Trichophyton violaceum; J+14, 50 µg/ml)
45%: activity at 10 µg/mL (Epidermophyton floccosum; [4]) | inhibition at 10 µg/mL (Epidermophyton floccosum; J+10, 10 µg/ml) | activity at 20 µg/mL (Microsporum canis; 240 h) | inhibition at 20 µg/mL (Microsporum canis; J+10, 20 µg/ml)
75%: inhibition at 10 µg/mL (Trichophyton rubrum; J+14, 10 µg/ml)
60%: activity at 20 µg/mL (Microsporum canis; 336 h) | inhibition at 10 µg/mL (Microsporum canis; J+10, 10 µg/ml) | inhibition at 20 µg/mL (Microsporum canis; J+14, 20 µg/ml) | activity at 20 µg/mL [1, 7] | inhibition at 20 µg/mL ([1]; J+10, 20 µg/ml) | activity at 20 µg/mL [2, 7] | inhibition at 10 µg/mL ([2]; J+10, 10 µg/ml) | inhibition at 20 µg/mL ([2]; J+10, 20 µg/ml) | inhibition at 10 µg/mL (Trichophyton rubrum; J+10, 10 µg/ml)
80%: inhibition at 2 µg/mL (Microsporum canis; J+10, 2 µg/ml) | inhibition at 10 µg/mL (Microsporum canis; J+14, 10 µg/ml) | inhibition at 2 µg/mL ([1]; J+10, 2 µg/ml) | inhibition at 10 µg/mL ([1]; J+14, 10 µg/ml) | inhibition at 2 µg/mL ([2]; J+10, 2 µg/ml) | inhibition at 2 µg/mL (Trichophyton soudanense; J+10, 2 µg/ml)
